Source: PMC9582160, “Inhibition of MRGPRX2 but not FcεRI or MrgprB2-mediated mast cell degranulation by a small molecule inverse receptor agonist” (Frontiers in Immunology, 2022)

Target: T1, MrgprB2 (Mus musculus, UniProt Q3KNA1)
T1 construct: endogenous receptor in mouse peritoneal mast cells
T1 sequence (Q3KNA1 1-338): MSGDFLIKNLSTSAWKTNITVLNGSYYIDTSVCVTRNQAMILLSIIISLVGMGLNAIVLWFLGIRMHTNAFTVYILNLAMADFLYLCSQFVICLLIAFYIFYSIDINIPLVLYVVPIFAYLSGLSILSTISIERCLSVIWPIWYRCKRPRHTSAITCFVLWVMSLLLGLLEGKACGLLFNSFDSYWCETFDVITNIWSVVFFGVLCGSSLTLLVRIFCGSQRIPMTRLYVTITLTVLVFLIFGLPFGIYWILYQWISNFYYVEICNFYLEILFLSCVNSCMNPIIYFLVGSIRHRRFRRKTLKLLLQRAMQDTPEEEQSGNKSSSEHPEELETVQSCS
Experiment: agonist: β-hexosaminidase release in WT peritoneal mast cells at […], absent in MrgprB2-/- cells
Format: cell-based

C=CC[N+]1([C@H]2C[C@H]3[C@@H]4CC[C@H]5C[C@H](O)[C@@H](N6CCOCC6)C[C@]5(C)[C@H]4CC[C@]3(C)[C@H]2OC(C)=O)CCCC1 [rocuronium]
agonist: β-hexosaminidase release in WT peritoneal mast cells at 20 μg/ml, absen: mediated via MrgprB2 by demonstrating that PMCs cultured from MrgprB2^−/− mice do not respond to these agonists
